Data taken from patent EP0170121A1, “2-Hydroxy-3-aryloxypropyl or 2-hydroxy-2-benzofuranyl ethyl tertiary amine having an anti-hyperglycaemic and/or anti-obesity activity” (BEECHAM GROUP PLC, priority 1984, dated 1986).
Where a name gives a salt, the structure may show the parent alone.

How the values were obtained:
[1] = system: Male Sprague-Dawley rats; assay: Effect on energy expenditure of rats (oxygen consumption, oral dosing); format: in vivo; conditions: deprived of food, p.o. in water, percentage of the rate of energy expenditure of the rats dosed with water, dose differs per compound (Dose mg/kg p.o.); for Mean Energy Expenditure (0-3h): 0-3h after dosing; for Mean Energy Expenditure (0-21h): 0-21h after dosing
Method: Male Sprague-Dawley rats each weighing between 170-200 g were deprived of food for 16 hours before, and during the experiment. Water was provided ad lib at all times. The compounds were administered orally in water to 3 or 4 rats. A further 4 rats were dosed orally with water. The rats were placed in boxes through which air was drawn and the oxygen content of the air leaving the boxes was measured. The energy expenditure of the rats was calculated for 3 hours and for 21 hours after dosing from the volume of air leaving the boxes and its oxygen content, following the principles described by J.B. de V. Weir, J. Physiol. (London) 109, 1-9 (1949). The results are expressed as a percentage of the rate of energy expenditure of the rats dosed with water.

[2] = system: Isolated Rat Atria; assay: Effect of compounds on isolated rat atria (rate of right atrium, tension of left atrium); format: cell-based, Sprague-Dawley male rats; conditions: Krebs solution 32°C, up to 3x10-^5M; for effect on tension (electrically paced left atrium): isolated rat left atrium; for effect on rate (spontaneously beating right atrium): isolated rat right atrium
Method: Sprague-Dawley male rats (300-400 g) are killed and the right and left atria dissected out independently and mounted on a combined tissue holder/electrode. The tissues are then immersed in a glass bath containing Krebs solution maintained at 32 °C. The rate of the spontaneously beating right atrium (via an isometric tranducer and a ratemeter) and the tension of the electrically paced left atrium (via an isometric transducer) are recorded on an M19 chart recorder.
After an initial stabilization period, the tissues are exposed to a maximal concentration of isoprenaline (10^-6M). The tissues are then washed several times until rate and tension return to baseline level. A dose-response curve to the test compound is then carried out.

[3] = system: Female CD1 mice; assay: Effect on energy expenditure of mice (oxygen consumption, oral dosing); format: in vivo; conditions: p.o. in water, percentage of the rate of energy expenditure of the mice dosed with water, dose differs per compound (Dose mg/kg p.o.); for Mean Energy Expenditure (0-3h): 0-3h after dosing; for Mean Energy Expenditure (0-21h): 0-21h after dosing
Method: Female CD1 mice each weighing approximately 24 g were given food and water ad lib before and during the experiment. The compounds were dissolved in water and these solutions were administered orally to each of 12 mice. A further 12 mice were dosed orally with water. The mice were placed in groups of threes in boxes through which air was drawn and the oxygen content of the air leaving the boxes was measured. The energy expenditure of the mice was calculated for 3 and 21 hours after dosing from the volume of air leaving the boxes and its oxygen content, following the principles described by J.B. de V. Weir, J. Physiol. (London) 109, 1-9 (1949). The results are expressed as a percentage of the rate of energy expenditure of the mice dosed with water.

[4] = system: Female BALB/c mice; assay: Anti-obesity activity: weight of parametrial fat pads after 3 days of compound in the diet; format: in vivo; conditions: compound in diet for 3 days, dose differs per compound (Dose mg/kg diet), mean of 9 values
Method: Female BALB/c mice were trained to feed on powdered oxoid for 1 week. They were then housed in threes and the compound under study was added to the diet for 3 days. Food was removed at 09.00h and the mice were killed at 11.00h. The parametrial fat pads were weighed as pairs. The result is a mean of 9 values.

[5] = system: Female CFLP mice; assay: Hypoglycaemic activity: subcutaneous glucose load, area under blood glucose curve; format: in vivo; conditions: female CFLP mice fasted 24 hours; compound orally 30 minutes before glucose 1 g/kg s.c.; 2 hour period; versus control mice given water; dose differs per compound (Dose µmol/kg)
Method: Female CFLP mice, weighing approximately 25 g, were fasted for 24 hours prior to the study. The compounds under study were administered orally as an aqueous solution to each of 6 mice. 30 minutes later a blood sample (20 µl) was obtained from the tail for the analysis of blood glucose. Immediately after taking this blood sample, glucose (1 g/kg body weight) was administered subcutaneously to each mouse. 6 mice were given water as a control. Blood samples were then obtained from each mouse at 30 minute intervals for 120 minutes.
Compounds that produced a significant (p<0.05) reduction of blood glucose, compared with control mice given water, at any time interval, were considered active. The area under the blood glucose curve over the 2 hour period after the administration of the glucose was calculated for each compound and compared with the value for control animals.

Row | SMILES | Mean Energy Expenditure (0-3h) [1] [percentage] | Mean Energy Expenditure (0-21h) [1] [percentage] | effect on tension (electrically paced left atrium) [2] | effect on rate (spontaneously beating right atrium) [2] | Mean Energy Expenditure (0-3h) [3] [percentage] | Mean Energy Expenditure (0-21h) [3] [percentage] | Percentage reduction in weight of parametrial fat pads compared with controls [4] [Percentage] | % Reduction in Area under Blood Glucose Curve [5] [%]
1 | COC(=O)c1ccc(C[C@@H](C)N(C[C@H](O)COc2ccccc2)C[C@H](O)c2ccccc2)cc1 [Example 4, Methyl 4-[(R)-2-[N-[(R)-2-hydroxy-2-phenethyl]-N-[(S)-2-hydroxy-3-phenoxypropyl]amino]propyl]benzoate, hydrochloride, monohydrate] | 110 | 119 | no effect | no effect | 145 | 120 | 25 | 12
2 | CCOC(=O)COc1ccc(C[C@@H](C)N(C[C@H](O)COc2ccccc2)C[C@H](O)c2ccccc2)cc1 [Example 15, Ethyl 4-[(R)-2-[N-[(R)-2-hydroxy-2-phenethyl]-N-[(S)-2-hydroxy-3-phenoxypropyl]amino]propyl]phenoxyacetate, hydrochloride] | 135 | 118 | no effect | no effect | 144 | 120 | 32 | 42
3 | CC(Cc1ccc(OCC(N)=O)cc1)N(CC(O)COc1ccccc1)CC(O)c1cccc(Cl)c1.Cl (stereo not shown) [Example 8, 4-[2-[N-[2-(3-Chlorophenyl)-2-hydroxyethyl]-N-[2-hydroxy-3-phenoxypropyl]amino]propyl]phenoxyacetamide, hydrochloride] |  |  | no effect | no effect | 158 | 122 | 39 | 50
